From article PMC10609013, “Solubility and Thermodynamic Analysis of Isotretinoin in Different (DMSO + Water) Mixtures” (Molecules, 2023)
Several values for one entry are separate records, joined by “and”; a condition that tells them apart may be missing. Equal values may be shown once.

Assays:
[1] = design: method as in PMID 36431759; details: cited from earlier work
[2] = Enthalpy-entropy compensation analysis; format: physicochemical; details: all {DMSO (1) + H2O (2)} mixes, neat DMSO and H2O, Thm = 308 K
Source text: An enthalpy–entropy compensation analysis was used, as previously described, to evaluate the solvation behavior of ITN (3) in numerous mixes of {DMSO (1) + H2O (2)}. Weighted curves of ΔsolH° vs. ΔsolG° were generated at Thm = 308 K for this experiment.

[3] = Shake flask solubility of ITN in {DMSO (1) + H2O (2)} mixes, HPLC; format: physicochemical; details: 101.1 kPa
Experimental: A series of {DMSO (1) + H2O (2)} solutions, with DMSO mass percentages ranging from 0.10 to 0.90, was examined. Three replicates of each {DMSO (1) + H2O (2)} combination were taken. ITN’s mole fraction solubility versus mass fraction of DMSO (m = 0.0–1.0) and neat DMSO and H2O was measured using a shake flask approach at 298.2–318.2 K and 101.1 kPa. In essence, the known amounts of each {DMSO (1) + H2O (2)} combination and neat DMSO and H2O were combined with extra ITN crystals in triplicate. The equilibrium was achieved by saturating the resultant mixes in a WiseBath® WSB shaking water bath (Model WSB-18/30/-45, Daihan Scientific Co. Ltd., Seoul, Korea) at a shaking speed of 100 rpm for 72 h. In order to evaluate the equilibrium time, the preliminary experiments were performed at different time intervals. […] The saturated solutions were again removed from the shaker after they had reached equilibrium and centrifuged for 30 min at 5000 rpm. A previously established environmentally friendly HPLC method was used to assess the ITN content after the supernatants were isolated and diluted (as required). The identification of ITN was carried out via a Nucleodur (dimensions: 150 mm × 4.6 mm and particle size: 5 μm) reversed-phase C18 analytical column at 298.2 K. The environmentally friendly mobile used was a binary mixture of ethyl acetate and ethanol (50:50% v v^−1). The mobile phase was delivered with a flow speed of 1 mL min^−1. The ITN measurements were performed at a wavelength of 354 nm. The sample volume was 20 μL, which was injected using a Waters autosampler. The Analytical GREEnness (AGREE) score was determined to evaluate the eco-friendliness nature of the HPLC method. The AGREE score was predicted to be 0.76 for the present HPLC method, indicating the eco-friendly nature of the HPLC method. ITN mole fraction solubilities (xe) were calculated using their standard formulae described in our previous work.

In the case of `CC1=C(/C=C/C(C)=C/C=C/C(C)=C\C(=O)O)C(C)(C)CCC1` [ITN, isotretinoin], the “total HSP (δt)” value [1] is given as 19.30 MPa^1/2, the solvation driven mechanism [2] is given as “enthalpy-driven” and the xe experimental solubility ([3]; DMSO mass fraction m = 0.0, T = 298.2 K) is given as 3.10 (0.07) × 10^−7 mole fraction. The xe experimental solubility ([3]; DMSO mass fraction m = 0.0, T = 303.2 K) was 4.60 (0.15) × 10^−7 mole fraction, the xe experimental solubility ([3]; DMSO mass fraction m = 0.0, T = 308.2 K) was 7.50 (0.18) × 10^−7 mole fraction and the xe experimental solubility ([3]; DMSO mass fraction m = 0.0, T = 313.2 K) was 1.10 (0.02) × 10^−6 mole fraction. For the same compound, the xe experimental solubility ([3]; DMSO mass fraction m = 0.0, T = 318.2 K) was 1.50 (0.03) × 10^−6 mole fraction, the xe experimental solubility ([3]; DMSO mass fraction m = 0.1, T = 298.2 K) was 1.12 (0.02) × 10^−6 mole fraction and the xe experimental solubility ([3]; DMSO mass fraction m = 0.1, T = 303.2 K) was 1.59 (0.03) × 10^−6 mole fraction. The xe experimental solubility ([3]; DMSO mass fraction m = 0.1, T = 308.2 K) was 2.45 (0.05) × 10^−6 mole fraction, the xe experimental solubility ([3]; DMSO mass fraction m = 0.1, T = 313.2 K) was 3.47 (0.06) × 10^−6 mole fraction and the xe experimental solubility ([3]; DMSO mass fraction m = 0.1, T = 318.2 K) was 4.61 (0.11) × 10^−6 mole fraction. The xe experimental solubility ([3]; DMSO mass fraction m = 0.2, T = 298.2 K) was 3.83 (0.08) × 10^−6 mole fraction, the xe experimental solubility ([3]; DMSO mass fraction m = 0.2, T = 303.2 K) was 5.28 (0.17) × 10^−6 mole fraction and the xe experimental solubility ([3]; DMSO mass fraction m = 0.2, T = 308.2 K) was 7.87 (0.21) × 10^−6 mole fraction. For the same compound, the xe experimental solubility ([3]; DMSO mass fraction m = 0.2, T = 313.2 K) was 1.10 (0.01) × 10^−5 mole fraction, the xe experimental solubility ([3]; DMSO mass fraction m = 0.2, T = 318.2 K) was 1.42 (0.02) × 10^−5 mole fraction and the xe experimental solubility ([3]; DMSO mass fraction m = 0.3, T = 298.2 K) was 1.36 (0.01) × 10^−5 mole fraction. For the same compound, the xe experimental solubility ([3]; DMSO mass fraction m = 0.3, T = 303.2 K) was 1.82 (0.03) × 10^−5 mole fraction, the xe experimental solubility ([3]; DMSO mass fraction m = 0.3, T = 308.2 K) was 2.57 (0.04) × 10^−5 mole fraction and the xe experimental solubility ([3]; DMSO mass fraction m = 0.3, T = 313.2 K) was 3.43 (0.06) × 10^−5 mole fraction. For the same compound, the xe experimental solubility ([3]; DMSO mass fraction m = 0.3, T = 318.2 K) was 4.29 (0.07) × 10^−5 mole fraction, the xe experimental solubility ([3]; DMSO mass fraction m = 0.4, T = 298.2 K) was 4.68 (0.07) × 10^−5 mole fraction and the xe experimental solubility ([3]; DMSO mass fraction m = 0.4, T = 303.2 K) was 6.06 (0.08) × 10^−5 mole fraction. The xe experimental solubility ([3]; DMSO mass fraction m = 0.4, T = 308.2 K) was 8.23 (0.10) × 10^−5 mole fraction, the xe experimental solubility ([3]; DMSO mass fraction m = 0.4, T = 313.2 K) was 1.08 (0.01) × 10^−4 mole fraction and the xe experimental solubility ([3]; DMSO mass fraction m = 0.4, T = 318.2 K) was 1.32 (0.02) × 10^−4 mole fraction. For the same compound, the xe experimental solubility ([3]; DMSO mass fraction m = 0.5, T = 298.2 K) was 1.65 (0.04) × 10^−4 mole fraction, the xe experimental solubility ([3]; DMSO mass fraction m = 0.5, T = 303.2 K) was 2.05 (0.05) × 10^−4 mole fraction and the xe experimental solubility ([3]; DMSO mass fraction m = 0.5, T = 308.2 K) was 2.69 (0.06) × 10^−4 mole fraction. For the same compound, the xe experimental solubility ([3]; DMSO mass fraction m = 0.5, T = 313.2 K) was 3.31 (0.07) × 10^−4 mole fraction, the xe experimental solubility ([3]; DMSO mass fraction m = 0.5, T = 318.2 K) was 3.96 (0.08) × 10^−4 mole fraction and the xe experimental solubility ([3]; DMSO mass fraction m = 0.6, T = 298.2 K) was 5.70 (0.10) × 10^−4 mole fraction. The xe experimental solubility ([3]; DMSO mass fraction m = 0.6, T = 303.2 K) was 6.88 (0.12) × 10^−4 mole fraction, the xe experimental solubility ([3]; DMSO mass fraction m = 0.6, T = 308.2 K) was 8.57 (0.17) × 10^−4 mole fraction and the xe experimental solubility ([3]; DMSO mass fraction m = 0.6, T = 313.2 K) was 1.08 (0.01) × 10^−3 mole fraction. For the same compound, the xe experimental solubility ([3]; DMSO mass fraction m = 0.6, T = 318.2 K) was 1.22 (0.02) × 10^−3 mole fraction, the xe experimental solubility ([3]; DMSO mass fraction m = 0.7, T = 298.2 K) was 2.02 (0.03) × 10^−3 mole fraction and the xe experimental solubility ([3]; DMSO mass fraction m = 0.7, T = 303.2 K) was 2.33 (0.05) × 10^−3 mole fraction. The xe experimental solubility ([3]; DMSO mass fraction m = 0.7, T = 308.2 K) was 2.79 (0.06) × 10^−3 mole fraction, the xe experimental solubility ([3]; DMSO mass fraction m = 0.7, T = 313.2 K) was 3.24 (0.07) × 10^−3 mole fraction and the xe experimental solubility ([3]; DMSO mass fraction m = 0.7, T = 318.2 K) was 3.66 (0.08) × 10^−3 mole fraction. For the same compound, the xe experimental solubility ([3]; DMSO mass fraction m = 0.8, T = 298.2 K) was 6.97 (0.10) × 10^−3 mole fraction, the xe experimental solubility ([3]; DMSO mass fraction m = 0.8, T = 303.2 K) was 7.81 (0.12) × 10^−3 mole fraction and the xe experimental solubility ([3]; DMSO mass fraction m = 0.8, T = 308.2 K) was 8.96 (0.20) × 10^−3 mole fraction. For the same compound, the xe experimental solubility ([3]; DMSO mass fraction m = 0.8, T = 313.2 K) was 1.02 (0.01) × 10^−2 mole fraction, the xe experimental solubility ([3]; DMSO mass fraction m = 0.8, T = 318.2 K) was 1.15 (0.01) × 10^−2 mole fraction and the xe experimental solubility ([3]; DMSO mass fraction m = 0.9, T = 298.2 K) was 2.44 (0.02) × 10^−2 mole fraction. For the same compound, the xe experimental solubility ([3]; DMSO mass fraction m = 0.9, T = 303.2 K) was 2.66 (0.03) × 10^−2 mole fraction, the xe experimental solubility ([3]; DMSO mass fraction m = 0.9, T = 308.2 K) was 2.86 (0.03) × 10^−2 mole fraction and the xe experimental solubility ([3]; DMSO mass fraction m = 0.9, T = 313.2 K) was 3.19 (0.04) × 10^−2 mole fraction. For the same compound, the xe experimental solubility ([3]; DMSO mass fraction m = 0.9, T = 318.2 K) was 3.39 (0.05) × 10^−2 mole fraction, the xe experimental solubility ([3]; DMSO mass fraction m = 1.0, T = 298.2 K) was 8.47 (0.10) × 10^−2 mole fraction and the xe experimental solubility ([3]; DMSO mass fraction m = 1.0, T = 303.2 K) was 8.88 (0.11) × 10^−2 mole fraction. For the same compound, the xe experimental solubility ([3]; DMSO mass fraction m = 1.0, T = 308.2 K) was 9.31 (0.12) × 10^−2 mole fraction, the xe experimental solubility ([3]; DMSO mass fraction m = 1.0, T = 313.2 K) was 9.80 (0.13) × 10^−2 mole fraction and the xe experimental solubility ([3]; DMSO mass fraction m = 1.0, T = 318.2 K) was 1.02 × 10^−1 mole fraction and 1.02 (0.01) × 10^−1 mole fraction.
